Test results published in ChEMBL document CHEMBL1201862, “PubChem BioAssay data set” (2004).
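Exposure lasted 48 hours, with cells grown in 96-well plates and compounds tested at five concentrations. GI50: concentration for 50% inhibition of growth.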 Activity calls are given as the source filed them. Cut-off read from the data, not from the text of the source: active = GI50 up to about 1.1 µM and inactive = higher.

Legend:
Assay in all cases: NCI anticancer screen, dose series, 48 h
M14 = tested on: M14
T47D = tested on: T47D
A498 = tested on: A498
U-251 = tested on: U-251
SNB-19 = tested on: SNB-19
K562 = tested on: K562
RPMI-8226 = tested on: RPMI-8226
ACHN = tested on: ACHN
NCI-H226 = tested on: NCI-H226
SK-MEL-5 = tested on: SK-MEL-5
BT-549 = tested on: BT-549
IGROV-1 = tested on: IGROV-1
UO-31 = tested on: UO-31
SK-MEL-28 = tested on: SK-MEL-28
SK-MEL-2 = tested on: SK-MEL-2
NCI/ADR-RES = tested on: NCI/ADR-RES
MDA-N = tested on: MDA-N
CAKI-1 = tested on: CAKI-1
KM12 = tested on: KM12
CCRF-CEM = tested on: CCRF-CEM

Measured: GI50

CCOc1cc(/C=N/c2nc3cc4sc(/N=C/c5ccc(O)c(OCC)c5)nc4cc3s2)ccc1O
inactive: M14 > 100 µM | T47D > 100 µM | A498 > 100 µM | U-251 > 100 µM | SNB-19 > 100 µM | K562 60.5 µM | RPMI-8226 > 100 µM | ACHN > 100 µM | NCI-H226 25.8 µM | SK-MEL-5 71.8 µM | BT-549 > 100 µM | IGROV-1 > 100 µM | UO-31 > 100 µM | SK-MEL-28 21.3 µM | SK-MEL-2 > 100 µM | NCI/ADR-RES > 100 µM | MDA-N 93.3 µM | CAKI-1 > 100 µM | KM12 > 100 µM

CC(C)(C)c1ccc(O)c(Br)c1
inactive: M14 > 100 µM | T47D 11.5 µM | A498 > 100 µM | U-251 > 100 µM | SNB-19 > 100 µM | K562 > 100 µM | RPMI-8226 > 100 µM | ACHN > 100 µM | CCRF-CEM > 100 µM | NCI-H226 > 100 µM | SK-MEL-5 > 100 µM | BT-549 > 100 µM | IGROV-1 19.1 µM | UO-31 > 100 µM | SK-MEL-28 > 100 µM | SK-MEL-2 > 100 µM | NCI/ADR-RES > 100 µM | MDA-N > 100 µM | KM12 63.5 µM

CCOC(=O)c1c2c(n3ccccc13)C(=O)c1ccccc1C2=O
inactive: M14 > 100 µM | T47D > 100 µM | A498 61.4 µM | U-251 54.5 µM | SNB-19 80 µM | K562 > 100 µM | RPMI-8226 > 100 µM | ACHN 17.9 µM | NCI-H226 > 100 µM | SK-MEL-5 10.7 µM | BT-549 21.6 µM | IGROV-1 > 100 µM | UO-31 > 100 µM | SK-MEL-28 > 100 µM | SK-MEL-2 > 100 µM | NCI/ADR-RES > 100 µM | MDA-N > 100 µM | CAKI-1 > 100 µM | KM12 > 100 µM

COc1cc(CN(C)N2C(=O)c3cccc4cc([N+](=O)[O-])cc(c34)C2=O)cc(OC)c1OC
inactive: M14 > 100 µM | T47D > 100 µM | A498 > 100 µM | U-251 > 100 µM | SNB-19 > 100 µM | K562 > 100 µM | RPMI-8226 > 100 µM | CCRF-CEM > 100 µM | NCI-H226 58.1 µM | SK-MEL-5 > 100 µM | BT-549 > 100 µM | IGROV-1 > 100 µM | UO-31 > 100 µM | SK-MEL-28 > 100 µM | SK-MEL-2 > 100 µM | NCI/ADR-RES > 100 µM | MDA-N > 100 µM | CAKI-1 > 100 µM | KM12 > 100 µM

COC(=O)[C@@H]1CO[C@H](C(C)(C)C)N1C(=O)N1C=CC(=O)C[C@H]1C
inactive: M14 > 100 µM | T47D > 100 µM | A498 > 100 µM | U-251 > 100 µM | K562 > 100 µM | RPMI-8226 > 100 µM | ACHN > 100 µM | CCRF-CEM > 100 µM | NCI-H226 > 100 µM | SK-MEL-5 > 100 µM | BT-549 > 100 µM | IGROV-1 > 100 µM | UO-31 > 100 µM | SK-MEL-28 > 100 µM | SK-MEL-2 > 100 µM | NCI/ADR-RES > 100 µM | MDA-N > 100 µM | CAKI-1 > 100 µM | KM12 > 100 µM

Oc1ccc2ccccc2c1C(c1ccc(Cl)cc1)c1c(O)ccc2ccccc12
inactive: M14 4.06 µM | T47D 2.86 µM | A498 2.7 µM | U-251 3.43 µM | SNB-19 4.93 µM | K562 2.67 µM | RPMI-8226 2.01 µM | ACHN 3.52 µM | CCRF-CEM 2.63 µM | SK-MEL-5 2.3 µM | BT-549 4.65 µM | IGROV-1 2.35 µM | UO-31 2.9 µM | SK-MEL-28 3.87 µM | SK-MEL-2 2.4 µM | NCI/ADR-RES 2.85 µM | MDA-N 3.31 µM | CAKI-1 2.71 µM | KM12 2.67 µM

Cc1ccc(/N=N/c2c(O)ccc3cc(S(=O)(=O)O)ccc23)c(C)c1
inactive: M14 > 100 µM | T47D > 100 µM | A498 > 100 µM | U-251 > 100 µM | SNB-19 > 100 µM | K562 > 100 µM | ACHN > 100 µM | CCRF-CEM > 100 µM | NCI-H226 > 100 µM | SK-MEL-5 > 100 µM | BT-549 > 100 µM | IGROV-1 > 100 µM | UO-31 > 100 µM | SK-MEL-28 > 100 µM | SK-MEL-2 > 100 µM | NCI/ADR-RES > 100 µM | MDA-N > 100 µM | CAKI-1 > 100 µM | KM12 > 100 µM

O=S(=O)(CC(O)C(Cl)(Cl)Cl)NNc1ccccc1 (stereo not drawn)
inactive: M14 81.7 µM | T47D 81.5 µM | A498 > 100 µM | U-251 > 100 µM | SNB-19 > 100 µM | K562 23 µM | RPMI-8226 > 100 µM | ACHN > 100 µM | CCRF-CEM > 100 µM | NCI-H226 > 100 µM | SK-MEL-5 74.1 µM | BT-549 > 100 µM | IGROV-1 > 100 µM | SK-MEL-28 > 100 µM | SK-MEL-2 > 100 µM | NCI/ADR-RES > 100 µM | MDA-N > 100 µM | CAKI-1 > 100 µM | KM12 > 100 µM

Cc1c([N+](=O)[O-])ccc2c(NCCCN(C)C)ccnc12
inactive: M14 16.3 µM | T47D 25.4 µM | A498 34 µM | U-251 27.4 µM | K562 48.6 µM | RPMI-8226 67.6 µM | ACHN 30.8 µM | CCRF-CEM > 100 µM | NCI-H226 30.4 µM | SK-MEL-5 16 µM | BT-549 17.9 µM | IGROV-1 22.2 µM | UO-31 13.7 µM | SK-MEL-28 25.5 µM | SK-MEL-2 17.1 µM | NCI/ADR-RES 28.2 µM | MDA-N 15 µM | CAKI-1 35.6 µM | KM12 16.7 µM

CN1CCc2c(sc3ncn(Nc4ccc(F)cc4)c(=N)c23)C1
inactive: M14 > 100 µM | T47D > 100 µM | A498 > 100 µM | U-251 > 100 µM | SNB-19 > 100 µM | K562 > 100 µM | RPMI-8226 > 100 µM | ACHN > 100 µM | CCRF-CEM > 100 µM | NCI-H226 92 µM | SK-MEL-5 > 100 µM | BT-549 > 100 µM | IGROV-1 > 100 µM | SK-MEL-28 > 100 µM | SK-MEL-2 > 100 µM | NCI/ADR-RES > 100 µM | MDA-N > 100 µM | CAKI-1 > 100 µM | KM12 > 100 µM

C=C(C(=O)O)C1CCC(CC/C=C(\C)CC/C=C(\C)CCC=C(C)C)CO1 (stereo not drawn)
active: NCI-H226 0.0723 µM
inactive: M14 11.1 µM | T47D 26.2 µM | A498 19.4 µM | U-251 20.1 µM | SNB-19 13.6 µM | ACHN 28.6 µM | CCRF-CEM 22.6 µM | SK-MEL-5 12.5 µM | BT-549 18 µM | IGROV-1 18.5 µM | UO-31 12.5 µM | SK-MEL-28 14.3 µM | SK-MEL-2 17.3 µM | NCI/ADR-RES 27.1 µM | MDA-N 11 µM | CAKI-1 32.3 µM | KM12 14.8 µM

Cc1cn(CCCCCCOC(=O)NC(CCCNC(N)=O)C(=O)O)c(=O)[nH]c1=O (stereo not drawn)
inactive: M14 > 100 µM | T47D > 100 µM | A498 > 100 µM | U-251 > 100 µM | SNB-19 > 100 µM | K562 > 100 µM | RPMI-8226 > 100 µM | ACHN > 100 µM | CCRF-CEM > 100 µM | NCI-H226 > 100 µM | BT-549 > 100 µM | IGROV-1 > 100 µM | UO-31 > 100 µM | SK-MEL-28 > 100 µM | SK-MEL-2 > 100 µM | NCI/ADR-RES > 100 µM | MDA-N > 100 µM | CAKI-1 > 100 µM | KM12 > 100 µM

CCOC(=O)c1nc2ccc(C(F)(F)F)cc2nc1Oc1cc(OC)c(OC)c(OC)c1
inactive: M14 > 100 µM | T47D > 100 µM | A498 > 100 µM | U-251 55.6 µM | SNB-19 27.8 µM | K562 36.7 µM | RPMI-8226 > 100 µM | ACHN 8.17 µM | CCRF-CEM > 10 µM | NCI-H226 27.2 µM | SK-MEL-5 23.1 µM | BT-549 > 100 µM | IGROV-1 51.1 µM | UO-31 > 100 µM | SK-MEL-28 > 100 µM | SK-MEL-2 > 100 µM | NCI/ADR-RES 30.9 µM | MDA-N > 100 µM | KM12 40.2 µM

O=c1oc2c/c(=C\c3ccccc3)c(=O)c3cccc1c3-2
inactive: M14 22.4 µM | T47D 27.3 µM | A498 > 100 µM | U-251 18.6 µM | SNB-19 31.8 µM | RPMI-8226 36.2 µM | ACHN > 100 µM | NCI-H226 31.7 µM | SK-MEL-5 > 10 µM | BT-549 28.3 µM | IGROV-1 23 µM | UO-31 30.1 µM | SK-MEL-28 36.1 µM | NCI/ADR-RES 33.7 µM | MDA-N 20.8 µM | CAKI-1 24.1 µM | KM12 24.9 µM
